One experiment deals with IL-5. Kind of experiment: IL-5 secretion, buffy coat assay supernatant, Cytometric 6 Bead Array. Conditions: Homo sapiens, read-out: IL-5 % Inhibition.
Experiment [1] has as its system TNFα. Kind of experiment: TNFα secretion by stimulated white blood cells, SSRI/corticosteroid combination matrices (Example 4, stimulus not given). The format is cell-based. Particulars: Homo sapiens, read-out: percent inhibition of TNFα secretion; for inhibition at 0.003 µM: prednisolone 0.003 μM; for inhibition at 0.006 µM: prednisolone 0.006 μM; for inhibition at 0.05 µM: prednisolone 0.050 μM; for inhibition at 0.1 µM: prednisolone 0.100 μM; for inhibition at 0.2 µM: prednisolone 0.200 μM.

Another experiment has as its system IL-4. Kind of experiment: IL-4 secretion, buffy coat assay supernatant, Cytometric 6 Bead Array. Conditions: Homo sapiens, read-out: IL-4 % Inhibition.
In the next experiment the test system is IL-1β. Kind of experiment: IL-1β secretion by white blood cells stimulated with lipopolysaccharide, ELISA. It counts as cell-based, human.
The subject of the next experiment is IL-2. Kind of experiment: IL-2 secretion by white blood cells/PBMC stimulated with phorbol 12-myristate 13-acetate and ionomycin (PI), ELISA. Conditions: for percent inhibition of cytokine secretion, IL-2: concentration (μM). (In general: ELISA stands for enzyme-linked immunosorbent assay.)
For experiment [2], the system named is TNFα. Kind of experiment: TNFα secretion by white blood cells stimulated with lipopolysaccharide (LPS), ELISA. Conditions: concentration (μM). It counts as cell-based, human.
Procedure: (§1) Various concentrations of each test compound were added at the time of stimulation. […] After the plate was washed with 0.1% Tween 20/PBS, an HRP-luminescent substrate was added to each well and light intensity measured using a LJL Analyst plate luminometer.
(§2) Single agents were tested for the ability to suppress secretion of IFNγ, IL-1β, IL-2, and TNFα from stimulated white blood cells, and the percent inhibition of cytokine secretion, relative to untreated stimulated white blood cells, was determined.
Experiment [3] concerns TNFα. Kind of experiment: TNFα secretion by white blood cells/PBMC stimulated with phorbol 12-myristate 13-acetate and ionomycin (PI), ELISA. Conditions: concentration (μM).
Procedure: as §1, §2
Where [4] appears, read: fluoxetine concentration (μM), 7.230 to 0.000.
Where [5] appears, read: paroxetine concentration (μM), 6.000 to 0.000.
Setting [6] is: Homo sapiens, PBMC, read-out: % Inhibition IL-2 PBMC PI.
Setting [7] is: paroxetine alone, 27.00 to 0.03.
The mark [8] stands for this setting: R(+) fluoxetine alone, 58 to 0.028.
Where [9] appears, read: fluoxetine alone, 29.00 to 0.01.
[10] abbreviates: norfluoxetine alone, 45.00 to 0.02.
The mark [11] stands for this setting: citalopram alone, 20.00 to 0.01.
The mark [12] stands for this setting: S(+) fluoxetine alone, 58 to 0.028.

Like-named read-outs stand apart in the source and are kept apart here.

Procedure for IL-1β: as §1, §2
Procedure for IL-2: as §1, §2
Procedure for IL-4: (§3) Analysis of IL-4 and IL-5 cytokine expression was performed using the BD PharMingen Cytometric 6 Bead Array system according to the manufacturer's instructions. Briefly, the supernatant from a buffy coat assay plate wa incubated with the labeled cytokine detection bead cocktail. The samples were then washed, resuspended and read on the BD Pharmingen FACsCalibur flow cytometer. Data was then analyzed using the BD Pharmingen CBA 6 Bead Analysis software.
Procedure for IL-5: as §3

A word on the inhibition: it is the change of the read-out against control, counted positive when it falls. With `C[C@]12C=CC(=O)C=C1CC[C@@H]1[C@@H]2[C@@H](O)C[C@@]2(C)[C@H]1CC[C@]2(O)C(=O)CO` [Prednisolone, prednisolone], the inhibition at 1 µM with IL-5 was found to be 75.5%; in the experiment on TNFα [1] (Prednisolone 1.0000 μM alone) it was 34%; in the experiment on TNFα [1] (prednisolone 1.0000 μM, fluoxetine concentration (μM), 0 to 29.00) it was 35.1%; in the experiment on TNFα [1] (prednisolone 1.0000 μM, paroxetine concentration (μM), 0 to 27.00), 38.6%; in the experiment on IL-4, 47.8%. Moreover, the inhibition at 0.5 µM in the experiment on TNFα [1] (Prednisolone 0.500 μM alone) was 29.1%; in the experiment on TNFα [1] (prednisolone 0.500 μM, fluoxetine concentration (μM), 0 to 29.00), 39%; in the experiment on TNFα [1] (prednisolone 0.500 μM, paroxetine concentration (μM), 0 to 27.00) it was 35.4%. Also, the inhibition at 0.0008 µM in the experiment with TNFα [1] (prednisolone 0.0008 μM, fluoxetine concentration (μM), 7.230 to 0.000) is 3.8%. Also, the inhibition at 0.003 µM was 4.4% with TNFα [1] (setting [4]) and -0.1% in the experiment on TNFα [1] (setting [5]). Besides, the inhibition at 0.006 µM with TNFα [1] (setting [4]) is 7%; in the experiment with TNFα [1] (setting [5]) it was 4.6%. The inhibition at 0.05 µM came to 24.3% in the experiment on TNFα [1] (setting [4]) and 23.4% in the experiment on TNFα [1] (setting [5]). The inhibition at 0.1 µM in the experiment on TNFα [1] (setting [4]) stood at 31.6%; in the experiment with TNFα [1] (setting [5]), 29.4%. Further, the inhibition at 0.2 µM in the experiment with TNFα [1] (setting [4]) stood at 39.7%; in the experiment on TNFα [1] (setting [5]), 34.1%. Moreover, the inhibition at 0.4 µM in the experiment with TNFα [1] (prednisolone 0.400 μM, paroxetine concentration (μM), 6.000 to 0.000) was determined as 36.2%.
In the case of `C[C@@H]1C[C@H]2[C@@H]3CCC4=CC(=O)C=C[C@]4(C)[C@@]3(F)[C@@H](O)C[C@]2(C)[C@@]1(O)C(=O)CO` [Dexamethasone, dexamethasone], in the experiment with TNFα [1] (dexamethasone 0.0004 μM, paroxetine concentration (μM), 0 to 6.000), the inhibition at 0.0004 µM was found to be 2.1%. In addition, the inhibition at 0.0006 µM with TNFα [1] (dexamethasone 0.0006 μM, fluoxetine concentration (μM), 0 to 0.580) was -3.8%. For the same compound, the inhibition at 0.0008 µM in the experiment with TNFα [1] (dexamethasone 0.0008 μM, paroxetine concentration (μM), 0 to 6.000) was found to be 6.7%.
In the case of `Fc1ccc([C@@H]2CCNC[C@H]2COc2ccc3c(c2)OCO3)cc1` [Paroxetine], the “percent inhibition of cytokine secretion, IL-1β” value (shortened to “percent inhibition … IL-1β”) with IL-1β (paroxetine alone, concentration (μM) in c4 of the same row, 53.00 to 0.05) worked out at 0%. Besides, in the experiment on IL-2 (setting [6]), the inhibition at 18 µM was 54.2%, the inhibition at 36 µM amounted to 83.5% and the inhibition at 72 µM is 95.7%. For the same compound, the “percent inhibition of cytokine secretion, IL-2” value (“percent inhibition … IL-2” below) in the experiment with IL-2 (setting [7]) amounted to 0%. The inhibition at 28 µM in the experiment on IL-5 was 97.8%. For the same compound, the “percent inhibition of cytokine secretion, TNFα (LPS)” value (“percent inhibition … (LPS)” for short) in the experiment on TNFα [2] (setting [7]) worked out at 0%. Further, the “percent inhibition of cytokine secretion, TNFα (PI)” value (shortened to “percent inhibition … (PI)”) in the experiment with TNFα [3] (setting [7]) was determined as 0%. Further, the inhibition at 28 µM in the experiment with IL-4 was 97.1%.
As to `CNCC[C@@H](Oc1ccc(C(F)(F)F)cc1)c1ccccc1` [R(+) Fluoxetine], the “percent inhibition … IL-1β” value in the experiment with IL-1β (R(+) fluoxetine alone, concentration (μM), 58 to 0.028) is given as 0%. For the same compound, in the experiment on IL-2 (setting [8]), the “percent inhibition … IL-2” value came out at 0%. Besides, the “percent inhibition … (LPS)” value in the experiment with TNFα [2] (setting [8]) is reported as 0%. The “percent inhibition … (PI)” value in the experiment with TNFα [3] (setting [8]) was 0%.
Turning to `COCCCC/C(=N\OCCN)c1ccc(C(F)(F)F)cc1` [Fluvoxamine], in the experiment on IL-1β (fluvoxamine alone, concentration (μM), 63 to 0.031), the “percent inhibition … IL-1β” value came out at 0%. Besides, in the experiment on IL-2 (setting [6]), the inhibition at 5 µM came out at 3.6%, the inhibition at 10 µM turned out to be 8.1% and the inhibition at 20 µM was found to be 22%. In addition, the “percent inhibition … (LPS)” value in the experiment on TNFα [2] (fluvoxamine alone, 63 to 0.031) is given as 0%. Moreover, the “percent inhibition … (PI)” value in the experiment on TNFα [3] (fluvoxamine alone, 63 to 0.031) turned out to be 0%.
Consider `CNCCC(Oc1ccc(C(F)(F)F)cc1)c1ccccc1` (stereo not shown) [Fluoxetine], for which the “percent inhibition … IL-1β” value in the experiment with IL-1β (fluoxetine alone, concentration (μM), 29.00 to 0.01) is 0%. Moreover, in the experiment on IL-2 (setting [6]), the inhibition at 10 µM was determined as 16.1%, the inhibition at 21 µM was determined as 47.4%, the inhibition at 42 µM worked out at 90.3% and the inhibition at 84 µM is 103%. In addition, the “percent inhibition … IL-2” value in the experiment on IL-2 (setting [9]) is on record as 0%. In addition, the “percent inhibition … (LPS)” value in the experiment with TNFα [2] (setting [9]) turned out to be 0%. In the experiment with TNFα [3] (setting [9]), the “percent inhibition … (PI)” value was 6%.
With `NCCC(Oc1ccc(C(F)(F)F)cc1)c1ccccc1` (stereo not shown) [Norfluoxetine, norfluoxetine], in the experiment with IL-1β (norfluoxetine alone, concentration (μM), 45.00 to 0.02), the “percent inhibition … IL-1β” value is reported as 0%. Moreover, the “percent inhibition … IL-2” value in the experiment on IL-2 (setting [10]) is 0%. The “percent inhibition … (LPS)” value with TNFα [2] (setting [10]) is 0%. For the same compound, the “percent inhibition … (PI)” value with TNFα [3] (setting [10]) came out at 0%.
For the compound `CN(C)CCCC1(c2ccc(F)cc2)OCc2cc(C#N)ccc21` (stereo not shown) [Citalopram], in the experiment on IL-2 (setting [11]), the “percent inhibition … IL-2” value was 0%. Besides, the “percent inhibition … (PI)” value in the experiment on TNFα [3] (setting [11]) stood at 0%.
For the compound `CCCC1O[C@@H]2C[C@H]3[C@@H]4CCC5=CC(=O)C=C[C@]5(C)[C@H]4[C@@H](O)C[C@]3(C)[C@]2(C(=O)CO)O1` (stereo partly shown) [Budesonide, budesonide], the inhibition at 0.0005 µM in the experiment with TNFα [1] (budesonide 0.0005 μM, fluoxetine concentration (μM), 0 to 0.580) is -2.4%. Besides, the inhibition at 0.002 µM in the experiment on TNFα [1] (budesonide 0.002 μM, fluoxetine concentration (μM), 0 to 0.580) was -8.9%. In addition, the inhibition at 0.009 µM with TNFα [1] (budesonide 0.009 μM, fluoxetine concentration (μM), 0 to 0.580) stood at 5.3%.
Regarding `CNCC[C@H](Oc1ccc(C(F)(F)F)cc1)c1ccccc1` [S(+) Fluoxetine], the “percent inhibition … IL-1β” value with IL-1β (S(+) fluoxetine alone, concentration (μM), 58 to 0.028) is reported as 0%. For the same compound, the “percent inhibition … IL-2” value with IL-2 (setting [12]) was determined as 0%. Further, in the experiment on TNFα [2] (setting [12]), the “percent inhibition … (LPS)” value is 0%. In addition, the “percent inhibition … (PI)” value in the experiment on TNFα [3] (setting [12]) is on record as 0%.
For `COc1ccc(C(CN(C)C)C2(O)CCCCC2)cc1` (stereo not shown) [Venlafaxine], the “percent inhibition … (LPS)” value in the experiment with TNFα [2] (venlafaxine alone, 39.83 to 0.02) came to 3.33%.

These data come from patent publication US20050153947A1, “Methods and reagents for the treatment of diseases and disorders associated with increased levels of proinflammatory cytokines” (priority 2002, published 2005).
